We go through one compound from PMC6154558, “Discovery and Biological Evaluation of a Series of Pyrrolo[2,3-b]pyrazines as Novel FGFR Inhibitors” (Molecules : A Journal of Synthetic Chemistry and Natural …, 2017).

Each structure is given as a SMILES string. Several values for one entry are separate records, joined by “and”; a condition that tells them apart may be missing. Equal values may be shown once.

One may read the inhibition as the share of the control response that was lost under treatment. By IC50 is commonly meant the concentration that gives 50% inhibition. Read a low IC50 as greater potency in that assay.

One experiment concerns the target T1, FGFR1 (Homo sapiens, UniProt P11362).
T1 construct: purchased Millipore
The experiment in a line: ELISA kinase assay, FGFR1. The class given is biochemical. The protocol:
(§1) The effects of compounds on the activities of indicated (FGFR1 and c-Met) kinases were determined using enzyme-linked immunosorbent assays (ELISAs) with purified recombinant proteins. Briefly, 20 μg/mL poly (Glu, Tyr)4:1 (Sigma, St. Louis, MO, USA) was pre-coated in 96-well plates as a substrate. A 50-μL aliquot of 10 μmol/L ATP solution diluted in kinase reaction buffer (50 mmol/L HEPES (pH 7.4), 50 mmol/L MgCl2, 0.5 mmol/L MnCl2, 0.2 mmol/L Na3VO4, and 1 mmol/L DTT) was added to each well; 1 μL of various concentrations of compounds diluted in 1% DMSO (v/v) (Sigma) were then added to each reaction well. DMSO (1%, v/v) was used as the negative control. The kinase reaction was initiated by the addition of purified tyrosine kinase proteins FGFR1 (Millipore, Darmstadt, Germany) or c-Met (Millipore) diluted in 49 μL of kinase reaction buffer. After incubation for 60 min at 37 °C, the plate was washed three times with phosphate-buffered saline (PBS) containing 0.1% Tween 20 (T-PBS). Anti-phosphotyrosine (PY99) antibody (Sanra Cruz, Dallas, USA) (100 μL; 1:500, diluted in 5 mg/mL bovine serum albumin (BSA) T-PBS) was then added. After a 30-min incubation at 37 °C, the plate was washed three times, and 100 μL horseradish peroxidase-conjugated goat anti-mouse IgG (Calbiochem, Shanghai, China) (1:2000, diluted in 5 mg/mL BSA T-PBS) was added. The plate was then incubated at 37°C for 30 min and washed 3 times. A 100-μL aliquot of a solution containing 0.03% H2O2 and 2 mg/mL o-phenylenediamine in 0.1 mol/L citrate buffer (pH 5.5) was added. The reaction was terminated by the addition of 50 μL of 2 mol/L H2SO4 as the color changed, and the plate was analyzed using a multi-well spectrophotometer (SpectraMAX 190, Molecular Devices, Palo Alto, CA, USA) at 490 nm. […] (1) where IR, A490 and A490control are the inhibition rate, the absorbance value of the tested compound at 490 nm and the absorbance value of the negative control compound at 490 nm, respectively. The IC50 values were calculated from the inhibition curves in two separate experiments.
On the technique in general: ELISA stands for enzyme-linked immunosorbent assay.

The target in another experiment is T2, c-Met (Homo sapiens, UniProt P08581).
T2 construct: purchased Millipore
The experiment in a line: ELISA kinase assay, c-Met. The class given is biochemical. The protocol: as §1

T1 sequence (P11362 22-822): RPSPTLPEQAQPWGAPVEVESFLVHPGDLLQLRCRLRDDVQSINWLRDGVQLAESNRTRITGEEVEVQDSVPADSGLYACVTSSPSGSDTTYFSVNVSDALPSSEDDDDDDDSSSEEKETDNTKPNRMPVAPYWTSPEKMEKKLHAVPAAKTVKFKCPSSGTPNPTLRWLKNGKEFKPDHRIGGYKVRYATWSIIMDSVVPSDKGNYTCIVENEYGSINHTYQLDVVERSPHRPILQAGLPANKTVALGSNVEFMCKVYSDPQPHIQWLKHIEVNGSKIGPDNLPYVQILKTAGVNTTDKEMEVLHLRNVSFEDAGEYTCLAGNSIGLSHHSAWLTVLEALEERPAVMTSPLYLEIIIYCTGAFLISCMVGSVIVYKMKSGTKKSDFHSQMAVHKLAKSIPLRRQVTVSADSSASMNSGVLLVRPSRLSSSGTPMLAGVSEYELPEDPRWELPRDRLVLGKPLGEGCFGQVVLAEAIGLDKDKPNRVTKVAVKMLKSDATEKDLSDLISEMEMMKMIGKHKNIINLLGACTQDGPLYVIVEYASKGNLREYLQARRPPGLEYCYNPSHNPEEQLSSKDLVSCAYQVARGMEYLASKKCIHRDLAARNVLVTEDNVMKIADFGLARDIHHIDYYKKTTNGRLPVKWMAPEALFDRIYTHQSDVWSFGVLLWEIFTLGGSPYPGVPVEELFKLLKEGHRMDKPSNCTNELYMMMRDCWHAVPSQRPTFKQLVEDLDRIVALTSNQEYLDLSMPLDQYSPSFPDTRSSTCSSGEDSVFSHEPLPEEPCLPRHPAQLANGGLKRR
T2 sequence (P08581 25-1390): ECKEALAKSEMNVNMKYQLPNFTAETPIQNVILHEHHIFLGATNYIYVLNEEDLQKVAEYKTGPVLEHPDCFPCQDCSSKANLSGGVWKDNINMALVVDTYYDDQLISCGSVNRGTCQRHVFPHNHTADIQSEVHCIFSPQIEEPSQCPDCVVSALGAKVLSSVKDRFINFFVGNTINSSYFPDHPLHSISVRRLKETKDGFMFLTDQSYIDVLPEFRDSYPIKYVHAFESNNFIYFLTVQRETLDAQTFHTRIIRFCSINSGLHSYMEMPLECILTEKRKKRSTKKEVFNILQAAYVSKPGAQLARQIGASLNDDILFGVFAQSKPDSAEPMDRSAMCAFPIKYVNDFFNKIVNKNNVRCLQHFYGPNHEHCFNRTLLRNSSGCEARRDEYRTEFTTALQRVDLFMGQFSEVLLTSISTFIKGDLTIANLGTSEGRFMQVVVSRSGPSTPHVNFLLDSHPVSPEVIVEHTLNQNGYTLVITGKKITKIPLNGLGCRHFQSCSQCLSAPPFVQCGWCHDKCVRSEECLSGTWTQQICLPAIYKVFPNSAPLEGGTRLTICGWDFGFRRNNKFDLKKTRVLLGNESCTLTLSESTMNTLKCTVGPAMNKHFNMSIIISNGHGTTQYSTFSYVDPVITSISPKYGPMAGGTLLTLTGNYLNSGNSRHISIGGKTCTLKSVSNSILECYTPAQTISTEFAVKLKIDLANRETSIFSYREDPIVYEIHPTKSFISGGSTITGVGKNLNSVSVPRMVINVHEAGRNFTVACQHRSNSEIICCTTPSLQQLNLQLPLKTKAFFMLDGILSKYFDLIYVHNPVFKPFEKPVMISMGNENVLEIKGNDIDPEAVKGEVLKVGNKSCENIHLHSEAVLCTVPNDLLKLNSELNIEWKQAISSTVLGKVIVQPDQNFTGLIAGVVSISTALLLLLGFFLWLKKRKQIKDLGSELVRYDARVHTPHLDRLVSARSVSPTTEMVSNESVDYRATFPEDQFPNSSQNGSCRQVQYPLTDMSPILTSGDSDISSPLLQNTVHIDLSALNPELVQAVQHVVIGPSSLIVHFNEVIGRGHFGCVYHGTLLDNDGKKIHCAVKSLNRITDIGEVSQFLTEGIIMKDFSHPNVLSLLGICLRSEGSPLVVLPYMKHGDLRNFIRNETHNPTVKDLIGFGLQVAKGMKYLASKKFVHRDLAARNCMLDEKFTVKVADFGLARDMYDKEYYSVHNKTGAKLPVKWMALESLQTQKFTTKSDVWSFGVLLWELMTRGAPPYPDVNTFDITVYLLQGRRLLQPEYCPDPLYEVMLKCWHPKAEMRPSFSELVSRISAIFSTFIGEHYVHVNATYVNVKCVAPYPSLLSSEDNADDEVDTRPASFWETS

`O=[N+]([O-])c1cccc(S(=O)(=O)n2ccc3ncc(-c4ccc(CO)cc4)nc32)c1` [Compound 27, (4-(5-((3-Nitrophenyl)sulfonyl)-5H-pyrrolo[2,3-b]pyrazin-3-yl)phenyl)methanol]: the values for the inhibition at 0.1 µM at FGFR1 (0.1 μM compound) and on c-Met (0.1 μM compound) were 52.2% and 8.4%, respectively. Moreover, the figures for the inhibition at 1 µM on FGFR1 (1 μM compound) and against c-Met (1 μM compound) were 75.5% and 30.1%, respectively. Also, on FGFR1 (mean ± SD from two separate experiments), the IC50 is 113 nM and 114 nM. In addition, at c-Met (0.01 μM compound), the inhibition at 0.01 µM was found to be 1.1%.
